Reference: patent US12528790B2, “Amide derivative having antiviral activity” (Shionogi & Co., Ltd., priority 2020, dated 2026)
Where two headings read alike, the source gives them in different places.

Experiments:
[1] = tested on: RSV A2 strain; experiment: In vitro CPE (CytoPathic Effect) inhibition effect evaluation test, RSV type A; format: cell-based; details: human respiratory syncytial virus
In short: (§1)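 EC50 is the concentration giving 50% inhibition of virus-induced cytopathic effect, fitted by nonlinear regression from CellTiter-Glo 2.0 viability. Compounds in 3-fold series were co-incubated at 37 °C with HEp-2 cells and RSV: A2 strain for 4 days, B (Wash/18537) for 5 days; uninfected wells served as control.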

[2] = tested on: RSV B (Wash/18537 strain); experiment: In vitro CPE (CytoPathic Effect) inhibition effect evaluation test, RSV type B; format: cell-based; details: human respiratory syncytial virus
In short: as §1

[3] = inhibitory effect against RSV type A (RSV A2 strain), HEp-2 cells, CPE inhibition, read-out: EC50
[4] = inhibitory effect against RSV type B, CPE inhibition, read-out: EC50
[5] = HEp-2, 96 h, read-out: EC50, inhibitory effect against RSV type A (CPE inhibition)
[6] = HEp-2, 120 h, HEp-2 cells, RSV B (Wash/18537 strain), 5 days, CellTiter-Glo, read-out: EC50, inhibitory effect against RSV type B (CPE inhibition)

SMILES	EC50 [1, 3] [µM]	EC50 [2, 4] [µM]	EC50 [1, 5] [µM]	EC50 [2, 6] [µM]
COC[C@H](C)n1cc(-c2ncc(C(=O)NC3(C(=O)O)C4CC5CC(C4)CC3C5)c(C(C)(F)F)n2)c2ccc(O[C@H]3CC[C@H](N4CC(F)(F)C4)CC3)cc21 (stereo partly shown) [Compound I-567]	< 0.01	< 0.01		
COC[C@@H](C)n1cc(-c2ncc(C(=O)NC3(C(=O)O)C4CC5CC(C4)CC3C5)c(C(C)(F)F)n2)c2ccc(O[C@H]3CC[C@H](N4CC(F)(F)C4)CC3)cc21 (stereo partly shown) [Compound I-569]	< 0.01	< 0.01		
CCC(CC)n1cc(-c2ncc(C(=O)NC3(C(=O)O)C4CC5CC(C4)CC3C5)c(C(C)(F)F)n2)c2ccc(O[C@H]3CC[C@H](N4CC(F)(F)C4)CC3)cc21 (stereo partly shown) [Compound I-570]			0.0007	0.0021
CC(F)(F)c1nc(-c2cn(C3CCOCC3)c3cc(O[C@H]4CC[C@H](N5CC(F)(F)C5)CC4)ccc23)ncc1C(=O)NC1(C(=O)O)C2CC3CC(C2)CC1C3 (stereo partly shown) [Compound I-572]	< 0.01	< 0.01		
O=C(NC1(C(=O)O)C2CC3CC(C2)CC1C3)c1cnc(-c2cn(C3CCC(F)(F)CC3)c3cc(-n4ncc5c4CCN(CC(F)(F)F)C5)ccc23)nc1C(F)(F)F (stereo not shown) [Compound I-573]	< 0.01	< 0.01		
CCC(CC)n1cc(-c2ccc(C(=O)NC3(C(=O)O)C4CC5CC(C4)CC3C5)c(C(F)(F)F)n2)c2ccc(O[C@H]3CC[C@H](N4CC(F)(F)C4)CC3)cc21 (stereo partly shown) [Compound I-575]	< 0.01	< 0.01		
COC[C@@H](C)n1cc(-c2ncc(C(=O)NC3(C(=O)O)C4CC5CC(C4)CC3C5)c(C(F)(F)F)n2)c2ccc(OC3CCN(CC(C)(F)F)CC3)cc21 (stereo partly shown) [Compound I-576]	< 0.01	< 0.01		
COC[C@H](C)n1cc(-c2ccc(C(=O)NC3(C(=O)O)C4CC5CC(C4)CC3C5)c(C(F)(F)F)n2)c2ccc(O[C@H]3CC[C@H](N4CC(F)(F)C4)CC3)cc21 (stereo partly shown) [Compound I-577]	< 0.01	< 0.01		
CC(F)(F)CN1CCC(Oc2ccc3c(-c4ncc(C(=O)NC5(C(=O)O)C6CC7CC(C6)CC5C7)c(C(F)(F)F)n4)cn(C4CCOCC4)c3c2)CC1 (stereo not shown) [Compound I-578]	< 0.01	< 0.01		
CC(F)(F)c1nc(-c2cn(C3CCC4(CC3)COC4)c3cc(O[C@H]4CC[C@H](N5CC(F)(F)C5)CC4)ccc23)ncc1C(=O)NC1(C(=O)O)C2CC3CC(C2)CC1C3 (stereo partly shown) [Compound I-580]	< 0.01	< 0.01		
COC[C@@H](C)n1cc(-c2ccc(C(=O)NC3(C(=O)O)C4CC5CC(C4)CC3C5)c(C(F)(F)F)n2)c2ccc(O[C@H]3CC[C@H](N4CC(F)(F)C4)CC3)cc21 (stereo partly shown) [Compound I-581]	< 0.01	< 0.01		
O=C(NC1(C(=O)O)C2CC3CC(C2)CC1C3)c1ccc(-c2cn(C3CCC4(CC3)COC4)c3cc(O[C@H]4CC[C@H](N5CC(F)(F)C5)CC4)ccc23)nc1C(F)(F)F (stereo partly shown) [Compound I-582]	< 0.01	< 0.01		
CC(F)(F)CN1CCC(Oc2ccc3c(-c4ncc(C(=O)NC5(C(=O)O)C6CC7CC(C6)CC5C7)c(C(C)(F)F)n4)cn(C4CCC(F)(F)CC4)c3c2)CC1 (stereo not shown) [Compound I-583]	< 0.01	< 0.01		
COC[C@@H](C)n1cc(-c2ncc(C(=O)NC3(C(=O)O)C4CC5CC(C4)CC3C5)c(C(F)(F)F)n2)c2ccc(O[C@H]3CC[C@@H](N4CC(F)(F)C4)CC3)cc21 (stereo partly shown) [Compound I-585]	< 0.01	< 0.01		
CC(F)(F)c1nc(N2CC3(CCOCC3)c3cc(O[C@H]4CC[C@@H](N5CC(F)(F)C5)CC4)ccc32)ncc1C(=O)NC1(C(=O)O)C2CC3CC(C2)CC1C3 (stereo partly shown) [Compound I-586]	< 0.01	< 0.01		
CCC1(CC)CN(c2ncc(C(=O)NC3(C(=O)O)C4CC5CC(C4)CC3C5)c(C(C)(F)F)n2)c2ccc(OC3CCN(c4ncc(F)cn4)CC3)cc21 (stereo not shown) [Compound I-588]	< 0.01	< 0.01		
CCC1(CC)CN(c2ncc(C(=O)NC3(C(=O)O)C4CC5CC(C4)CC3C5)c(C(C)(F)F)n2)c2ccc(OC3CCN(CC(F)(F)F)CC3)cc21 (stereo not shown) [Compound I-589]	< 0.01	< 0.01		
CCC1(CC)CN(c2ncc(C(=O)NC3(C(=O)O)C4CC5CC(C4)CC3C5)c(C(C)(F)F)n2)c2ccc(O[C@H]3CC[C@H](N4CC(F)(F)C4)CC3)cc21 (stereo partly shown) [Compound I-591]			0.00061	0.0022
CC(F)(F)c1nc(N2CC3(CCOCC3)c3cc(OC4CN(CC(F)(F)F)C4)ccc32)ncc1C(=O)NC1(C(=O)O)C2CC3CC(C2)CC1C3 (stereo not shown) [Compound I-592]	< 0.01	< 0.01		
CC(F)(F)c1nc(N2CC3(CCOCC3)c3cc(OC4CCN(C5CS(=O)(=O)C5)CC4)ccc32)ncc1C(=O)NC1(C(=O)O)C2CC3CC(C2)CC1C3 (stereo not shown) [Compound I-593]	< 0.01	< 0.01		
CC(F)(F)c1nc(N2CC3(CCOCC3)c3cc(O[C@H]4CC[C@H](N5CC(F)(F)C5)CC4)ncc32)ncc1C(=O)NC1(C(=O)O)C2CC3CC(C2)CC1C3 (stereo partly shown) [Compound I-594]			0.00038	0.0042

SMILES	EC50 [1, 3] [µM]	EC50 [2, 4] [µM]	EC50 [1, 5] [µM]	EC50 [2, 6] [µM]
O=C(NC1(C(=O)O)C2CC3CC(C2)CC1C3)c1cnc(N2CC3(CCCCC3)c3cc(O[C@H]4CC[C@H](N5CC(F)(F)C5)CC4)ncc32)nc1C(F)(F)F (stereo partly shown) [Compound I-595]	< 0.01	< 0.01		
CC(F)(F)c1nc(N2CC3(CCOCC3)c3cc(-n4ncc5c4CCN(CC(F)(F)F)C5)ccc32)ncc1C(=O)NC1(C(=O)O)C2CC3CC(C2)CC1C3 (stereo not shown) [Compound I-596]	< 0.01	< 0.01		
CC(F)(F)c1nc(N2CC3(CC3)c3cc(O[C@H]4CC[C@H](N5CC(F)(F)C5)CC4)ccc32)ncc1C(=O)NC1(C(=O)O)C2CC3CC(C2)CC1C3 (stereo partly shown) [Compound I-597]	< 0.01	< 0.01		
CC(F)(F)c1nc(N2CC3(CCCC3)c3cc(O[C@@H]4CCN(CC(F)(F)F)C4)ccc32)ncc1C(=O)NC1(C(=O)O)C2CC3CC(C2)CC1C3 (stereo partly shown) [Compound I-598]	< 0.01	< 0.01		
CC(F)(F)c1nc(N2CC3(CCOCC3)c3cc(OC4CCN(c5ncc(F)cn5)CC4)ncc32)ncc1C(=O)N[C@]1(C(=O)O)[C@@H]2CC3C[C@H]1C[C@@](F)(C3)C2 [Compound I-599]	< 0.01	< 0.01		
CC(F)(F)c1nc(N2CC3(CCCCC3)c3cc(OC4CCN(c5ncc(F)cn5)CC4)ncc32)ncc1C(=O)N[C@]1(C(=O)O)[C@@H]2CC3C[C@H]1C[C@@](F)(C3)C2 [Compound I-600]	< 0.01	< 0.01		
CC(F)(F)c1nc(N2CC3(CCOCC3)c3cc(O[C@H]4CC[C@H](N5CC(F)(F)C5)CC4)ncc32)ncc1C(=O)N[C@]1(C(=O)O)[C@@H]2CC3C[C@H]1C[C@@](F)(C3)C2 [Compound I-601]	< 0.01	< 0.01		
CC(F)(F)c1nc(N2CC3(CCOCC3)c3cc(-n4ncc5c4CCN(CC(F)(F)F)C5)ncc32)ncc1C(=O)NC1(C(=O)O)C2CC3CC(C2)CC1C3 (stereo not shown) [Compound I-602]	< 0.01	< 0.01		
CC(F)(F)c1nc(N2CC3(CC3)c3cc(OC4CCN(c5ncc(F)cn5)CC4)ccc32)ncc1C(=O)NC1(C(=O)O)C2CC3CC(C2)CC1C3 (stereo not shown) [Compound I-603]	< 0.01	< 0.01		
CC(F)(F)c1nc(N2CC3(CC3)c3cc(OC4CCN(CC(F)(F)F)CC4)ccc32)ncc1C(=O)NC1(C(=O)O)C2CC3CC(C2)CC1C3 (stereo not shown) [Compound I-604]	< 0.01	< 0.01		
CC(F)(F)c1nc(N2CC3(CCOCC3)c3cc(OC4CCN(CC(F)(F)F)CC4)ncc32)ncc1C(=O)N[C@]1(C(=O)O)[C@@H]2CC3C[C@H]1C[C@@](F)(C3)C2 [Compound I-605]	< 0.01	< 0.01		
O=C(NC1(C(=O)O)C2CC3CC(C2)CC1C3)c1cnc(N2CC3(CCCCC3)c3cc(-n4ncc5c4CCN(CC(F)(F)F)C5)ccc32)nc1C(F)(F)F (stereo not shown) [Compound I-606]	< 0.01	< 0.01		
CC(F)(F)c1nc(N2CC3(CCCCC3)c3cc(-n4ncc5c4CCN(CC(F)(F)F)C5)ccc32)ncc1C(=O)NC1(C(=O)O)C2CC3CC(C2)CC1C3 (stereo not shown) [Compound I-607]	< 0.01	< 0.01		
CC(F)(F)c1nc(N2CC3(CCCCC3)c3cc(C(=O)N4CCN(CC(F)(F)F)CC4)ccc32)ncc1C(=O)NC1(C(=O)O)C2CC3CC(C2)CC1C3 (stereo not shown) [Compound I-608]	< 0.01	< 0.01		
COC1CCN(C(=O)c2ccc3c(c2)C2(CCCCC2)CN3c2ncc(C(=O)NC3(C(=O)O)C4CC5CC(C4)CC3C5)c(C(C)(F)F)n2)CC1 (stereo not shown) [Compound I-609]	< 0.01	< 0.01		
CC(F)(F)c1nc(N2CC3(CCCCC3)c3cc(C(=O)N4CCC(C(F)F)CC4)ccc32)ncc1C(=O)NC1(C(=O)O)C2CC3CC(C2)CC1C3 (stereo not shown) [Compound I-610]	< 0.01	< 0.01		
CC(F)(F)c1nc(-c2cn(C3CCC(F)(F)CC3)c3cc(O[C@H]4CC[C@H](N5CC(F)(F)C5)CC4)ccc23)ncc1C(=O)N[C@]1(C(=O)O)[C@@H]2CC3C[C@H]1C[C@@](F)(C3)C2 [Compound I-611]	< 0.01	< 0.01		
CC(F)(F)CN1CCC(Oc2ccc3c(-c4ncc(C(=O)NC5(C(=O)O)C6CC7CC(C6)CC5C7)c(C(C)(F)F)n4)cn(C4CCOCC4)c3c2)CC1 (stereo not shown) [Compound I-612]	< 0.01	< 0.01		
CC[C@@H](C)n1cc(-c2ncc(C(=O)NC3(C(=O)O)C4CC5CC(C4)CC3C5)c(C(F)(F)F)n2)c2ccc(O[C@H]3CC[C@H](N4CC(F)(F)C4)CC3)cc21 (stereo partly shown) [Compound I-613]	< 0.01	< 0.01		
O=C(NC1(C(=O)O)C2CC3CC(C2)CC1C3)c1cnc(-c2cn(C3CCOCC3)c3cc(O[C@H]4CC[C@@H](N5CC(F)(F)C5)CC4)ccc23)nc1C(F)(F)F (stereo partly shown) [Compound I-614]	< 0.01	< 0.01		
